Data published in US20030109571A1, “Thromboxane ligands without blood clotting side effects” (ALLERGAN SALES, INC., priority 1993, published 2003).
Where two headings read alike, the source gives them in different places. Marks after values point to notes of the source that are not given here. One block for each molecule: values may come before it.

Tests used:
[1] = system: Platelets (Human); assay: Platelet aggregation in platelet-rich plasma from healthy human donors; assay type: cell-based; conditions: for Kb: antagonist, read-out: KB Platelets aggreg
Protocol: (§1) Activity at different prostanoid receptors was measured in vitro in isolated smooth muscle preparations. FP-activity was measured as contraction of the isolated feline iris sphincter. EP1-activity was measured as contraction of the longitudinal smooth muscle of the isolated guinea pig ileum. EP3-activity was measured as inhibition of the twitch response induced by electrical field stimulation in the isolated guinea pig was deferens and as contraction of the longitudinal smooth muscle of the isolated chick ileum. TP-vasoconstrictor activity was measured as contraction of rings of the isolated rat thoracic aorta. Effects on platelets from healthy human donors were measured by incubating platelet-rich plasma with the compounds described herein. Inhibition of aggregation was determined by the ability of the compounds described herein to inhibit platelet aggregation in platelet-rich plasma induced by 20 μM ADP.

[2] = Dog intraocular pressure, topical dosing, applanation pneumatonometry; assay type: in vivo; conditions: for Intraocular pressure change: dog
Protocol: (§2) The compounds were prepared at the said concentrations in a vehicle comprising 0.1% polysorbate 80 and 10 mM TRIS base. Dogs and monkeys were treated by administering 25 ul to the ocular surface, the contralateral eye received vehicle as a control. Intraocular pressure was measured by applanation pneumatonometry. Experiments were performed with dogs and monkeys. Dog intraocular pressure was measured immediately before drug administration and at 2, 4 and 6 hour thereafter. Additional studies in monkeys were performed over a 5 day period and drug was administered at times 0, 6, 24, 30, 48, 54, 72, 78, and 96 hours. Monkey intraocular pressure was recorded just before drug administration on each day and at the 2 and 4 hour time intervals between dosing.

[3] = Monkey intraocular pressure, topical dosing over 5 days, applanation pneumatonometry; assay type: in vivo; design: Intraocular pressure change: unit not given beside the values; conditions: for Intraocular pressure change: monkey
Protocol: as §2

[4] = target: FP prostanoid receptor; assay: FP-activity: contraction of the isolated feline iris sphincter; conditions: concentration producing 50% of maximal response; read-out: EC50 at FP (Cat Iris)
Protocol: as §1

[5] = system: EP1 prostanoid receptor; assay: EP1-activity: contraction of longitudinal smooth muscle of isolated guinea pig ileum
Protocol: as §1

[6] = system: EP3 prostanoid receptor; assay: EP3-activity: inhibition of electrically induced twitch response in isolated guinea pig vas deferens; conditions: read-out: EC50 at EP3(c) (Guinea Pig vas deferens)
Protocol: as §1

[7] = system: EP3 prostanoid receptor; assay: EP3-activity: contraction of longitudinal smooth muscle of isolated chick ileum; conditions: read-out: EC50 at EP3(d) (Chick Ileum)
Protocol: as §1

[8] = target: T1, TP-receptor (vascular, TPVASC) (Rattus norvegicus, UniProt P34978); assay: TP-vasoconstrictor activity: contraction of rings of isolated rat thoracic aorta, without or with SQ29,548; conditions: for Kb: antagonist
T1 construct: measured in vitro in isolated smooth muscle preparations; from tissue; host or cells: rings of isolated rat thoracic aorta
T1 sequence (P34978 1-341): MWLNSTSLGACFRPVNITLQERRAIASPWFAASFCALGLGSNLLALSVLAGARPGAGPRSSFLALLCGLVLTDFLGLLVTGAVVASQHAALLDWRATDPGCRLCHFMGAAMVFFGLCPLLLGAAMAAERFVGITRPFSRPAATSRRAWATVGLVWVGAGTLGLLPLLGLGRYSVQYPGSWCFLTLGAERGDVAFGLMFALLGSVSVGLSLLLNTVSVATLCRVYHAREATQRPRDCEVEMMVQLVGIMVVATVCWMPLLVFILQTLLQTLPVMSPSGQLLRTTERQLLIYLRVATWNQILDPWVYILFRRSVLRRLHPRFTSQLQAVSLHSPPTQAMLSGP
Protocol: as §1
In addition, inhibition by the thromboxane A2-receptor antagonist SQ29,548 ([1S-[1α, 2α (5Z), 3α, 4α]]-7-[3-[[2-[phenylamino)carbonyl]-hydrazino]methyl]-7-oxabicyclo[2.2.1] hept-2-yl]-5-heptenoic acid) of vasoconstrictor activity was investigated.

[9] = system: isolated perfused coronary arteries; conditions: at 1 μM; cited from earlier work
[10] = system: HPRP; conditions: cited from earlier work; for Effect on HPRP: in words
[11] = system: rat aorta; conditions: read-out: CD50 contraction of isolated rat aorta; cited from earlier work
[12] = system: vasculature; conditions: in words; cited from earlier work
[13] = system: platelets; conditions: in words; cited from earlier work
[14] = Table 7, read-out: EC50 Platelets aggreg
[15] = Table 7, read-out: EC50 (Rat Aorta)

Molecule: 9,11-dideoxy-9α,11α-methanoepoxy prostaglandin F2α [Example U-46619, reference compound]
EC50 [1, 14]: 320 nM
Agonist response, platelet aggregation ([1]; agonist alone at 3.3 × 10-7): 97.7 ± 1.6 % of max response
Agonist response, platelet aggregation ([1]; agonist alone at 10-6): 100.0 ± 1.9 % of max response
Agonist response, platelet aggregation ([1]; agonist alone at 10-7): −7.0 + 1.1 % of max response
Agonist response, platelet aggregation ([1]; agonist alone at 10-8): 0 % of max response
Intraocular pressure change ([2]; dose 0.1%, 2 HR after dosing): +0.86
Intraocular pressure change ([2]; dose 0.1%, 4 HR after dosing): +1.75
Intraocular pressure change ([2]; dose 0.1%, 6 HR after dosing): +2.7
Effect on intraocular pressure ([2]; dogs, in words): increase in intraocular pressure
Intraocular pressure change ([3]; dose not given, 0 HR): 0
Intraocular pressure change ([3]; dose not given, 2 HR): 2.0
Intraocular pressure change ([3]; dose not given, 4 HR): 0.3
Intraocular pressure change ([3]; dose not given, 6 HR): 1.0
Effect on intraocular pressure ([3]; monkeys, in words): increase in intraocular pressure

EC50 [4]: 433 nM
EC50 [5]: 1240 nM
EC50 [6]: 282 nM
EC50 [7]: 245 nM
EC50 ([8]; Table 1, read-out: EC50 at TPVASC (Rat Aorta)): 0.23 nM
EC50 ([8]; absence of SQ29,548, read-out: EC50 at TPVASC-receptor, rat aorta): 2 nM
EC50 ([8]; presence of SQ29,548 (1 uM), read-out: EC50 at TPVASC-receptor, rat aorta): 325 nM
Molecule: CCCCCC(O)/C=C/C1C2CC(OC(=O)O2)C1C/C=C\CCCC(=O)O (stereo not drawn) [Example 7]
EC50 ([1]; Table 1, read-out: EC50 Platelets (Human) Aggregation): 24 nM
Agonist response, platelet aggregation ([1]; agonist alone at 3.3 × 10-8): −8.8 + 1.3 % of max response
Agonist response, platelet aggregation ([1]; agonist alone at 10-6): 103.0 ± 1.9 % of max response
Agonist response, platelet aggregation ([1]; agonist alone at 10-7): 100.5 ± 2.2 % of max response
Agonist response, platelet aggregation ([1]; agonist alone at 10-8): −7.9 + 1.3 % of max response
Agonist response, platelet aggregation ([1]; agonist alone at 10-9): 0 % of max response
Intraocular pressure change ([2]; dose 0.01%, 2 HR after dosing): −9.7**
Intraocular pressure change ([2]; dose 0.01%, 4 HR after dosing): −11.4**
Intraocular pressure change ([2]; dose 0.01%, 6 HR after dosing): −11.25**
Intraocular pressure change ([3]; dose 0.01%, 0 HR): 0
Intraocular pressure change ([3]; dose 0.01%, 2 HR): −0.4
Intraocular pressure change ([3]; dose 0.01%, 4 HR): 0
Intraocular pressure change ([3]; dose 0.01%, 6 HR): 0
Intraocular pressure change ([3]; dose 0.01%, 24 HR): −1.0
Intraocular pressure change ([3]; dose 0.01%, 26 HR): 3.2
Intraocular pressure change ([3]; dose 0.01%, 28 HR): −4.6
Intraocular pressure change ([3]; dose 0.01%, 30 HR): −3.2
Intraocular pressure change ([3]; dose 0.01%, 48 HR): −1.8
Intraocular pressure change ([3]; dose 0.01%, 50 HR): −3.8
Intraocular pressure change ([3]; dose 0.01%, 52 HR): −4.0
Intraocular pressure change ([3]; dose 0.01%, 54 HR): −4.2
Intraocular pressure change ([3]; dose 0.01%, 72 HR): 4.2
Intraocular pressure change ([3]; dose 0.01%, 74 HR): −2.0
Intraocular pressure change ([3]; dose 0.01%, 76 HR): −3.2
Intraocular pressure change ([3]; dose 0.01%, 78 HR): −4.0
Intraocular pressure change ([3]; dose 0.01%, 96 HR): −2.0
Intraocular pressure change ([3]; dose 0.01%, 98 HR): −2.2
Intraocular pressure change ([3]; dose 0.01%, 100 HR): −3.2
Inhibition of vasoconstriction of isolated perfused cat coronary artery induced by carbocyclic TXA2 [9]: Inhibited vasoconstriction of isolated perfused cat coronary artery induced by carbocyclic TXA2 by 72% at 1 μM^11

Molecule: CCCCCC(/C=C/C1C2CC(OC(=O)O2)C1C/C=C\CCCC(=O)OCc1ccccc1)OC(=O)C(C)(C)C (stereo not drawn) [Example 11, 7-16-carbobenzoxy-2-cis-hexenyl]-6-[3α-pivaloyloxy-1-trans-octenyl]-3-oxo-2,4-dioxobicyclo[3.2.11 octane]
Intraocular pressure change ([2]; dose 0.1%, 2 HR after dosing): −6.9**
Intraocular pressure change ([2]; dose 0.1%, 4 HR after dosing): −7.7**
Intraocular pressure change ([2]; dose 0.1%, 6 HR after dosing): −9.4**
Effect on HPRP [10]: no effect

Molecule: CCCCCC(/C=C/C1C2CC(OC(=O)O2)C1C/C=C\CCCC(=O)O)OC(=O)C(C)(C)C (stereo not drawn) [Example 12, 7-[6-carboxy-2-cis-hexenyl]-6-[3α-pivaloyloxy-1-trans-octenyl]-3-oxo-2,4-dioxobicyclo [3.2.1] Octane]
Intraocular pressure change ([2]; dose 0.1%, 2 HR after dosing): −3.8**
Intraocular pressure change ([2]; dose 0.1%, 4 HR after dosing): −4.7**
Intraocular pressure change ([2]; dose 0.1%, 6 HR after dosing): −6.9**
Effect on HPRP [10]: no effect

Molecule: CCCCC[C@H](O)/C=C/C1S[C@H]2CC(S2)[C@@H]1C/C=C\CCCC(=O)O (stereo partly drawn) [Example 13]
IC50 ([10]; read-out: IC50 irreversible aggregation of HPRP): 4300 nM
EC50 [11]: 0.7 nM

Activity in contracting vascular smooth muscle ([8]; in words): pronounced activity
Molecule: CCCCCC(/C=C/C1C2CC(OC(=O)O2)C1C/C=C\CCCC(=O)O)O[Si](C)(C)C(C)(C)C (stereo not drawn) [Example 16, 7-[6-carboxy-2-cis-hexenyl]-6-[3α-t-butyldimethylsilyloxy-1-trans-octenyl]-3-oxo-2,4-dioxobicyclo [3.2.1] octane]
Ability to cause platelet aggregation ([1]; in words): no or minimal ability
Action on the vasculature [12]: weak vasoconstrictor activity
Action on platelets [13]: No effect

EC50 [8, 15]: 2 nM
Molecule: I-BOP [reference compound]
EC50 [1, 14]: 214 nM

Molecule: Pinane thromboxane A2 [reference compound]
EC50 [8, 15]: 203 nM
EC50 [1, 14]: 950 nM

Molecule: [1R-[1α, 4α, 5β(Z), 6α(1E, 3S*)-7-[6-(3-hydroxy-1-octenyl)-2-oxabicyclo[2.2.1]hept-5-yl]-5-hepten-1-ol [Example 19]
EC50 [8, 15]: 26 nM

Kb ([8]; Table 7): 1.6 nM
Molecule: [1S-[1α, 2α (5Z), 3α, 4α]]-7-[3-[[2-[phenylamino)carbonyl]-hydrazino]methyl]-7-oxabicyclo[2.2.1] hept-2-yl]-5-heptenoic acid [SQ29,548, reference compound]
Kb ([1]; Table 7): 30.6 nM

Molecule: [1S-[1α, 2α(5Z), 3α, 4α]]-7-[3-[2(phenylamino)carbonyl]-hydrazino]methyl]-7-oxabicyclo [2.2.1]hept-2-yl]-5-hepten-1-ol [Example 22]
Kb ([8]; Table 7): 18.2 nM
Kb ([1]; Table 7): 4500 nM

Molecule: [1S-[1α, 2α(Z), 3β(1E, 3S*), 4α]]-7-[3-(3-hydroxy-4-(4-iodophenoxy)-1-butenyl]-7-oxabicyclo[2.2.1]hept-2-yl]-5-hepten-1-ol [Example 21]
EC50 [8, 15]: 0.4 nM

Molecule: [1S-[1α, 2β(Z), 3(1E, 3R*), 5α]]-7-[3-(3-hydroxy-1-octenyl)-6,6-dimethylbicyclo[3.1.1]hept-2-yl]-5-hepten-1-ol [Example 20]
EC50 [8, 15]: 929 nM
